Results as given in the supplement of paper PMC10733146.

Tests used:
Assay in all cases: viability relative to DMSO control (fraction); higher = less drug effect (more viable cells)
Conditions in all cases: 48 h
[1] = tested on: primary AML patient cells (S006)
Summary of the method: (§1)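 Primary mononuclear tumour cells (Ficoll-isolated from blood or bone marrow, or processed lymph node; fresh or cryopreserved) were plated at 4 × 10^4 cells per well in 384-well plates with pre-plated compounds at five concentrations, one well each. Medium was RPMI-1640 with penicillin/streptomycin, L-glutamine and human serum, at 37 °C and 5% CO2 for 48 h. Viability was read as CellTiter-Glo luminescence relative to the median of 16 inner DMSO wells.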

[2] = tested on: primary BL patient cells (S005)
Summary of the method: as §1

[3] = tested on: primary AML patient cells (S060)
Summary of the method: as §1

[4] = tested on: primary ALL patient cells (S088)
Summary of the method: as §1

[5] = tested on: primary MCL patient cells (S041)
Summary of the method: as §1

[6] = tested on: primary AML patient cells (S079)
Summary of the method: as §1

[7] = tested on: primary AML patient cells (S009)
Summary of the method: as §1

[8] = tested on: primary AML patient cells (S072)
Summary of the method: as §1

[9] = tested on: primary AML patient cells (S012)
Summary of the method: as §1

[10] = tested on: primary AML patient cells (S071)
Summary of the method: as §1

[11] = tested on: primary CLL patient cells (S043)
Summary of the method: as §1

[12] = tested on: primary AML patient cells (S085)
Summary of the method: as §1

[13] = tested on: primary AML patient cells (S017)
Summary of the method: as §1

[14] = tested on: primary MCL patient cells (S063)
Summary of the method: as §1

[15] = tested on: primary B-PLL patient cells (S016)
Summary of the method: as §1

[16] = tested on: primary MCL patient cells (S053)
Summary of the method: as §1

[17] = tested on: primary DLBCL patient cells (S082)
Summary of the method: as §1

[18] = tested on: primary FL patient cells (S087)
Summary of the method: as §1

[19] = tested on: primary AML patient cells (S056)
Summary of the method: as §1

[20] = tested on: primary CLL patient cells (S031)
Summary of the method: as §1

Nc1cccc2c1CN(C1CCC(=O)NC1=O)C2=O (stereo not given) [Lenalidomide]
viability ([1]; 0.008 µM): 0.847 | viability ([1]; 0.04 µM): 0.602 | viability ([1]; 0.2 µM): 0.463 | viability ([1]; 1 µM): 0.633 | viability ([1]; 5 µM): 0.372 | viability ([2]; 0.008 µM): 0.943 | viability ([2]; 0.04 µM): 1.29 | viability ([2]; 0.2 µM): 1.22 | viability ([2]; 1 µM): 0.897 | viability ([2]; 5 µM): 1.12 | viability ([3]; 0.008 µM): 1.02 | viability ([3]; 0.04 µM): 0.973 | viability ([3]; 0.2 µM): 0.992 | viability ([3]; 1 µM): 1 | viability ([3]; 5 µM): 1.01 | viability ([4]; 0.008 µM): 1.07 | viability ([4]; 0.04 µM): 1.05 | viability ([4]; 0.2 µM): 0.976 | viability ([4]; 1 µM): 0.933 | viability ([4]; 5 µM): 0.904 | viability ([5]; 0.008 µM): 1.01 | viability ([5]; 0.04 µM): 0.929 | viability ([5]; 0.2 µM): 0.888 | viability ([5]; 1 µM): 0.953 | viability ([5]; 5 µM): 0.863 | viability ([6]; 0.008 µM): 1.02 | viability ([6]; 0.04 µM): 1.02 | viability ([6]; 0.2 µM): 1.08 | viability ([6]; 1 µM): 1.08 | viability ([6]; 5 µM): 1.08 | viability ([7]; 0.008 µM): 0.927 | viability ([7]; 0.04 µM): 0.871 | viability ([7]; 0.2 µM): 0.817 | viability ([7]; 1 µM): 0.723 | viability ([7]; 5 µM): 0.786 | viability ([8]; 0.008 µM): 1.12 | viability ([8]; 0.04 µM): 1.14 | viability ([8]; 0.2 µM): 1.1 | viability ([8]; 1 µM): 1.13 | viability ([8]; 5 µM): 1.15 | viability ([9]; 0.008 µM): 0.913 | viability ([9]; 0.04 µM): 0.956 | viability ([9]; 0.2 µM): 0.874 | viability ([9]; 1 µM): 0.946 | viability ([9]; 5 µM): 0.981 | viability ([10]; 0.008 µM): 0.864 | viability ([10]; 0.04 µM): 0.563 | viability ([10]; 0.2 µM): 0.386 | viability ([10]; 1 µM): 0.321 | viability ([10]; 5 µM): 0.295 | viability ([11]; 0.008 µM): 1.1 | viability ([11]; 0.04 µM): 1.07 | viability ([11]; 0.2 µM): 1.08 | viability ([11]; 1 µM): 1.05 | viability ([11]; 5 µM): 1.05 | viability ([12]; 0.008 µM): 0.956 | viability ([12]; 0.04 µM): 0.688 | viability ([12]; 0.2 µM): 0.572 | viability ([12]; 1 µM): 0.524 | viability ([12]; 5 µM): 0.529 | viability ([13]; 0.008 µM): 1.03 | viability ([13]; 0.04 µM): 0.976 | viability ([13]; 0.2 µM): 0.982 | viability ([13]; 1 µM): 0.963 | viability ([13]; 5 µM): 0.986 | viability ([14]; 0.008 µM): 1.14 | viability ([14]; 0.04 µM): 1.09 | viability ([14]; 0.2 µM): 1.08 | viability ([14]; 1 µM): 1.11 | viability ([14]; 5 µM): 1.11 | viability ([15]; 0.008 µM): 1.1 | viability ([15]; 0.04 µM): 1.05 | viability ([15]; 0.2 µM): 0.883 | viability ([15]; 1 µM): 0.819 | viability ([15]; 5 µM): 0.719 | viability ([16]; 0.008 µM): 1.13 | viability ([16]; 0.04 µM): 0.965 | viability ([16]; 0.2 µM): 0.862 | viability ([16]; 1 µM): 0.817 | viability ([16]; 5 µM): 0.688 | viability ([17]; 0.008 µM): 1.1 | viability ([17]; 0.04 µM): 1.07 | viability ([17]; 0.2 µM): 1.08 | viability ([17]; 1 µM): 1.14 | viability ([17]; 5 µM): 1.1 | viability ([18]; 0.008 µM): 1 | viability ([18]; 0.04 µM): 0.963 | viability ([18]; 0.2 µM): 0.926 | viability ([18]; 1 µM): 0.956 | viability ([18]; 5 µM): 0.87 | viability ([19]; 0.008 µM): 1.04 | viability ([19]; 0.04 µM): 1.24 | viability ([19]; 0.2 µM): 0.961 | viability ([19]; 1 µM): 0.98 | viability ([19]; 5 µM): 0.84 | viability ([20]; 0.008 µM): 1.09 | viability ([20]; 0.04 µM): 1.08 | viability ([20]; 0.2 µM): 1.08 | viability ([20]; 1 µM): 1.04 | viability ([20]; 5 µM): 1.01

CNC(=O)c1cc(Oc2ccc(NC(=O)Nc3ccc(Cl)c(C(F)(F)F)c3)cc2)ccn1 [Sorafenib]
viability ([1]; 0.024 µM): 0.709 | viability ([1]; 0.12 µM): 0.508 | viability ([1]; 0.6 µM): 0.413 | viability ([1]; 3 µM): 0.423 | viability ([1]; 15 µM): 0.378 | viability ([2]; 0.024 µM): 0.839 | viability ([2]; 0.12 µM): 0.905 | viability ([2]; 0.6 µM): 0.92 | viability ([2]; 3 µM): 0.957 | viability ([2]; 15 µM): 0.885 | viability ([3]; 0.024 µM): 0.963 | viability ([3]; 0.12 µM): 0.951 | viability ([3]; 0.6 µM): 1.02 | viability ([3]; 3 µM): 1.02 | viability ([3]; 15 µM): 1.09 | viability ([4]; 0.024 µM): 0.811 | viability ([4]; 0.12 µM): 0.896 | viability ([4]; 0.6 µM): 0.844 | viability ([4]; 3 µM): 0.996 | viability ([4]; 15 µM): 1.31 | viability ([5]; 0.024 µM): 0.981 | viability ([5]; 0.12 µM): 1.01 | viability ([5]; 0.6 µM): 1.04 | viability ([5]; 3 µM): 1.05 | viability ([5]; 15 µM): 0.95 | viability ([6]; 0.024 µM): 0.99 | viability ([6]; 0.12 µM): 1.02 | viability ([6]; 0.6 µM): 1.04 | viability ([6]; 3 µM): 1.1 | viability ([6]; 15 µM): 0.791 | viability ([7]; 0.024 µM): 0.947 | viability ([7]; 0.12 µM): 0.828 | viability ([7]; 0.6 µM): 0.869 | viability ([7]; 3 µM): 0.985 | viability ([7]; 15 µM): 0.906 | viability ([8]; 0.024 µM): 1.02 | viability ([8]; 0.12 µM): 1.04 | viability ([8]; 0.6 µM): 0.99 | viability ([8]; 3 µM): 1.04 | viability ([8]; 15 µM): 1.01 | viability ([9]; 0.024 µM): 0.958 | viability ([9]; 0.12 µM): 0.991 | viability ([9]; 0.6 µM): 1.05 | viability ([9]; 3 µM): 1.01 | viability ([9]; 15 µM): 1.09 | viability ([10]; 0.024 µM): 0.944 | viability ([10]; 0.12 µM): 1.01 | viability ([10]; 0.6 µM): 1.02 | viability ([10]; 3 µM): 1 | viability ([10]; 15 µM): 0.614 | viability ([11]; 0.024 µM): 0.938 | viability ([11]; 0.12 µM): 1.05 | viability ([11]; 0.6 µM): 0.94 | viability ([11]; 3 µM): 1.08 | viability ([11]; 15 µM): 0.858 | viability ([12]; 0.024 µM): 1.09 | viability ([12]; 0.12 µM): 1.06 | viability ([12]; 0.6 µM): 0.916 | viability ([12]; 3 µM): 1.12 | viability ([12]; 15 µM): 1.03 | viability ([13]; 0.024 µM): 0.955 | viability ([13]; 0.12 µM): 0.988 | viability ([13]; 0.6 µM): 0.935 | viability ([13]; 3 µM): 1.04 | viability ([13]; 15 µM): 0.927 | viability ([14]; 0.024 µM): 0.98 | viability ([14]; 0.12 µM): 1.02 | viability ([14]; 0.6 µM): 0.973 | viability ([14]; 3 µM): 1.06 | viability ([14]; 15 µM): 1.02 | viability ([15]; 0.024 µM): 0.964 | viability ([15]; 0.12 µM): 1.05 | viability ([15]; 0.6 µM): 1.01 | viability ([15]; 3 µM): 1 | viability ([15]; 15 µM): 0.978 | viability ([17]; 0.024 µM): 1 | viability ([17]; 0.12 µM): 1.02 | viability ([17]; 0.6 µM): 1.03 | viability ([17]; 3 µM): 1.18 | viability ([17]; 15 µM): 1.35 | viability ([18]; 0.024 µM): 1.01 | viability ([18]; 0.12 µM): 1.04 | viability ([18]; 0.6 µM): 1.08 | viability ([18]; 3 µM): 1.06 | viability ([18]; 15 µM): 1.04 | viability ([19]; 0.024 µM): 0.642 | viability ([19]; 0.12 µM): 0.488 | viability ([19]; 0.6 µM): 0.443 | viability ([19]; 3 µM): 0.453 | viability ([19]; 15 µM): 0.374 | viability ([20]; 0.024 µM): 1.01 | viability ([20]; 0.12 µM): 1.02 | viability ([20]; 0.6 µM): 1.13 | viability ([20]; 3 µM): 1.02 | viability ([20]; 15 µM): 1.04
